# Results taken from patent US20200345689A1, “METHODS AND CO[…] RRx-001 FOR RADIOPROTECTION” (EpicentRx, Inc., priority 2018, published 2020).
# Assays:
# heme oxygenase 1 (HO-1) = test: Western blot of ARE protein expression in hMSC: HO-1; format: cell-based, human; conditions: 5 mM RRx-001 for 16 hours
# Protocol: Antioxidant response element (ARE) genes such as heme oxygenase 1 (HO-1), NAD(P)H Dehydrogenase [Quinone] 1 (NQO-1) and Superoxide Dismutase (SOD) are involved in the detoxification and elimination of reactive oxidants.
# (§1) Expression of ARE proteins was assayed in hMSC, macrophages, and monocytes following in vitro irradiation of the cells, which were pretreated with RRx-001 or vehicle. Protein expression was assayed by Western blotting and protein quantification.
# (§2) hMSC were treated for 16 hours with […] RRx-001 or the vehicle control (0.05% DMSO), irradiated at 10 Gy or sham-irradiated and the protein collected 8 or 24 hours post-sham or irradiation. Human monocytic leukemic THP-1 and U937 cells were differentiated into macrophages with 50 nM Phorbol 12-myristate 13-acetate (PMA) for 24 hours before treatment. Differentiated and non-differentiated cells were treated with […] RRx-001 or 0.05% DMSO (vehicle control) for 16 hours prior to radiation. The cells were irradiated at 5 Gy or sham-irradiated and collected 4-8 hours later for both analysis. For each experiment, duplicates of each sample were run.
# [1] = test system: male Syrian Golden Hamsters; test: Oral mucositis induced by acute radiation in hamsters; format: in vivo
# Protocol: In this example, the ability of RRx-001 to treat oral mucositis induced by acute radiation was assess in hamsters.
# Fifty-six (56) male Syrian Golden Hamsters were used in the study. Mucositis was induced by administering an acute radiation dose of 40 Gy directed to the left buccal cheek pouch on Day 0 at a rate of 2-2.5 Gy/min. Mucositis was evaluated clinically starting on Day 6 and continuing on alternate days until Day 28. Hamsters reaching a mucositis severity score of 4 or higher received buprenorphine (0.5 mg/kg) SC twice a day for 48 hours or until score dropped below 4.
# Dosing was scheduled as follows: for animals in Groups 1-4, animals were dosed with RRx-001 (1, 3, or 10 mg/kg) or vehicle (1:2 DMA:PEG400 vol:vol ratio) once a day (QD) on Days −4, −1, 1, 4, 7, 11, 14, 18, 21, and 25 via intraperitoneal (IP) administration; animals in Groups 5-7 were dosed QD with RRx-001 (1, 3, or 10 mg/kg) on Days −4, −1, 1, 8, 15, and 22.
# The significance of differences observed between the control and treatment group was evaluated by comparing the days with mucositis scores≥3 and <3 between groups using chi-square analysis. […] The percentage of animal days with a score of ≥3 in the Vehicle Group was 57.29%. […] There were numerous days where animals dosed with RRx-001 had percent ulceration days that were lower (which can be interpreted as ameliorative of disease severity) in comparison to vehicle-dosed animals.
# An analysis of the severity of mucositis was performed using the Mann-Whitney rank sum analysis to compare the visual mucositis scores for the treatment group to the Vehicle control group on each day of evaluation. In this analysis, 2 days of significant reduction in the mucositis score are generally required before it is regarded as meaningful.
# HO-1 = test: Western blot of HO-1 in U937 monocytes and macrophages; format: cell-based, human; conditions: 3 mM RRx-001 for 16 hours
# Protocol: as §1, §2
# SOD-1 = test: Western blot of SOD-1 in U937 macrophages; format: cell-based, human; conditions: 3 mM RRx-001 for 16 hours, sham and irradiated groups
# Protocol: as §1, §2
# NQO-1 = test: Western blot of NQO-1 in U937 macrophages; format: cell-based, human; conditions: 3 mM RRx-001 for 16 hours, sham and irradiated groups
# Protocol: as §1, §2
# CD2F1 male mice = test: Complete blood count with differential and reticulocytes after sublethal TBI or sham irradiation; format: in vivo
# Protocol: To determine the pathophysiological effects of RRx-001 on hematopoietic protection in mice, CD2F1 male mice were treated with 10 mg/kg RRx-001 or the vehicle control 24 hours prior to a sublethal dose of TBI (7 Gy at 0.6 Gy/min using High-level Cobalt-60) or sham irradiation (day 0) according to the table below.
# CD2F1 male mice (n=3/group) were divided into 4 experimental groups: 1) irradiation+vehicle, 2) irradiation+RRx-001, 3) sham-irradiation+vehicle and 4) sham-irradiation+RRx-001. Either 10 mg/kg RRx-001 or the vehicle control were IP injected 24 hours prior to either irradiation or sham-irradiation (day 0). On days 2, 7, 14, 21, and 28 post-irradiation (day 0) mice were humanely euthanized. Blood, bone marrow, and sternebrae were then collected. This experiment was performed in duplicate for a total of n=6 mice/group/time point.
# Post-irradiation whole blood was obtained by terminal cardiocentesis. Blood samples were immediately transferred into EDTA tubes (Sarstedt Inc., Newton, N.C.) and gently rotated until the time of analysis. The tubes were analyzed for a complete blood count with differential and reticulocytes using the ADVIA 2120 (Siemens Medical Solutions Diagnostics, Dublin, Ireland), and Microsoft software version 5.9 (Microsoft Corp., Redmond, Wash.) to generate the data.
# Blood parameters were compared between treatment groups using an analysis of variance (ANOVA). The Wilcoxon test was also used for sensitivity and to potentially address data departures from normality. A longitudinal mixed model repeated measures was also implemented to provide a more complete data analysis of the sham-irradiated treatment groups' difference in overall time profile mean based on the blood parameters. Bone marrow data (megakaryocytes and grade) statistical analysis was carried out using a parametric test consisting of a general linear model analysis of variance (ANOVA with factors consisting of treatment group and pathologist) and the Kruskal-Wallis nonparametric test. The statistical data analysis was carried out using R software (Version 3.4.3, 2016) and the graphs made using GraphPad Prism version 7.03 (GraphPad Software, La Jolla, Calif.).
# [2] = 7 Gy TBI, decrease below sham controls on days 7 and 14
# [3] = days 2 and 21 post-irradiation (7 Gy TBI)
smiles,measurement,setting,value
"O=C(CBr)N1CC([N+](=O)[O-])([N+](=O)[O-])C1 [RRx-001, 2-bromo-1-(3,3-dinitroazetidin-1-yl)ethan-1-one]",increase in HO-1 expression,heme oxygenase 1 (HO-1); 24 hours post-sham or irradiation,2-3.5 fold
same,increase in HO-1 expression,"heme oxygenase 1 (HO-1); sham and 10 Gy irradiated groups, 8 hours post-sham or irradiation",22-26 fold
same,percent ulceration (mucositis score ≥3),"[1]; 10 mg/kg, Groups 2 and 5, only dosed on Days −4, −1, and 1",best response in decreasing percent ulceration
same,"percent days of ulceration, twice weekly dosing vs dosing one time per week",[1]; 3 and 1 mg/kg concentrations (Groups 4 vs. Group 7),more beneficial effects on percent days of ulceration
same,mean daily mucositis scores,"[1]; Group 2: 10 mg/kg IP, dosing terminated after Day 1, 40 Gy to left buccal cheek pouch",modest but significant enhancement of disease healing
same,percentage of days with a mucositis score of ≥3 in comparison to the Vehicle Group,"[1]; Group 2: 10 mg/kg on Days −4, −1, 1, chi-square, p<0.01",statistically lower
same,mean daily mucositis scores,"[1]; all other treatment groups (Groups 3-7: 1, 3 or 10 mg/kg IP)","tracked fairly close to each other, and with Vehicle dosed controls"
same,mucositis scores compared to the Vehicle control group,[1]; animals dosed with 1 mg/kg,multiple days of significant improvement
same,mucositis scores compared to the Vehicle control group,[1]; animals dosed with 10 mg/kg,multiple days of significant improvement
same,HO-1 production,"HO-1; U937 macrophages, sham and irradiated groups",increased HO-1 production
same,HO-1 expression,HO-1; U937 monocyte fraction,significant increase in HO-1
same,SOD-1 expression,SOD-1,no change
same,NQO-1 expression,NQO-1,no change
same,% HCT compared to the irradiated control,"CD2F1 male mice; 7 Gy TBI, day 14",significantly increased levels
same,ALC counts compared to the controls,"CD2F1 male mice; 7 Gy TBI, day 14",significantly increased
same,WBC counts compared to the controls,"CD2F1 male mice; 7 Gy TBI, day 14",significantly increased
same,% RETIC compared to control mice,"CD2F1 male mice; 7 Gy TBI, day 14, returned to baseline levels",significantly increased
same,% RETIC compared to the vehicle controls,"CD2F1 male mice; 7 Gy TBI, day 28",significantly increased
same,ANC compared to the control,"CD2F1 male mice; 7 Gy TBI, days 7 and 14",significantly increased
same,PLT compared to the control,"CD2F1 male mice; 7 Gy TBI, days 7 and 14",significantly increased
same,"hemoglobin, irradiated RRx-001 vs irradiated vehicle",CD2F1 male mice; [2],not significantly different
same,"red blood cells, irradiated RRx-001 vs irradiated vehicle",CD2F1 male mice; [2],not significantly different
same,absolute lymphocyte count (ALC) vs vehicle control,CD2F1 male mice; [3],No significant difference
same,absolute neutrophil count (ANC) vs vehicle control,CD2F1 male mice; [3],No significant difference
same,percent hematocrit (% HCT) vs vehicle control,CD2F1 male mice; [3],No significant difference
same,percent reticulocytes (% RETIC) vs vehicle control,CD2F1 male mice; [3],No significant difference
same,platelets (PLT) vs vehicle control,CD2F1 male mice; [3],No significant difference
same,white blood cells (WBC) vs vehicle control,CD2F1 male mice; [3],No significant difference
same,"platelets, overall mean over time (standard error)","CD2F1 male mice; sham-irradiated, 10 mg/kg IP, longitudinal mixed model repeated measures",1067.73 (32.26)
same,difference in the overall mean of platelets over time vs vehicle,"CD2F1 male mice; sham-irradiated, least-square means, p=0.01",statistically significant difference in the least-square means in favor of RRx-001-treatment
